Reference: ChEMBL document CHEMBL3885861, “Open TG-GATES”

Organism: Rattus norvegicus
Assay: Open TG-GATES - Regimen: Daily Repeat
Assay type: toxicity, organism-based, Sprague-Dawley
Set-up: regimen Daily Repeat, gender Male, age 6 weeks
Conditions: in vivo, po, 100 mg/kg, route gavage, dose level Low; for APTT / Bas / Eos / Fbg / Hb / Ht / Lym / MCH / MCHC / MCV / Mono / Neu / PT / Plat / RBC / Ret / WBC: tissue Blood; for KIDNEY_L / KIDNEY_R / KIDNEY_TOTAL: tissue Kidney; for LIVER: tissue Liver; for A/G / ALP / ALT / AST / BUN / CRE / Ca / Cl / DBIL / GLC / IP / K / LDH / Na / PL / RALB / TBIL / TC / TG / TP / gamma-GTP: tissue Plasma

In the case of `COC1=CC(=O)C[C@@H](C)[C@]12Oc1c(Cl)c(OC)cc(OC)c1C2=O` [GRISEOFULVIN], the TERMINAL_BW (72 h, time 3 day) is reported as 226.6 g, the APTT (72 h, time 3 day) is reported as 19.6 s and the Bas (72 h, time 3 day) is reported as 0%. It also gave an Eos (72 h, time 3 day) of 1%, a Fbg (72 h, time 3 day) of 220 mg/dL and a Hb (72 h, time 3 day) of 13.2 g/dL. It also gave a Ht (72 h, time 3 day) of 39.1%, a Lym (72 h, time 3 day) of 79.6% and an MCH (72 h, time 3 day) of 22.1 pg. For the same molecule, the MCHC (72 h, time 3 day) was 33.8%, the MCV (72 h, time 3 day) was 65.4 fL and the Mono (72 h, time 3 day) was 2.4%. It also gave a Neu (72 h, time 3 day) of 16.4%, a PT (72 h, time 3 day) of 12.6 s and a Plat (72 h, time 3 day) of 116.4 x10_4/uL. It also gave an RBC (72 h, time 3 day) of 599.4 x10_4/ul, a Ret (72 h, time 3 day) of 7.5% and a WBC (72 h, time 3 day) of 97.1 x10_2/uL. For the same molecule, the KIDNEY_L (72 h, time 3 day) was 1 g, the KIDNEY_R (72 h, time 3 day) was 1 g and the KIDNEY_TOTAL (72 h, time 3 day) was 2 g. The LIVER (72 h, time 3 day) was 11.2 g, the A/G (72 h, time 3 day) was 1.6 and the ALP (72 h, time 3 day) was 947.8 IU/L. It also gave an ALT (72 h, time 3 day) of 35.8 IU/L, an AST (72 h, time 3 day) of 63 IU/L and a BUN (72 h, time 3 day) of 14.6 mg/dL. The CRE (72 h, time 3 day) was 0.4 mg/dL, the Ca (72 h, time 3 day) was 10.8 mg/dL and the Cl (72 h, time 3 day) was 103.8 meq/L. For the same molecule, the DBIL (72 h, time 3 day) was 0.086 mg/dL, the GLC (72 h, time 3 day) was 213.6 mg/dL and the IP (72 h, time 3 day) was 7.9 mg/dL. The K (72 h, time 3 day) was 3.9 meq/L, the LDH (72 h, time 3 day) was 158.2 IU/L and the Na (72 h, time 3 day) was 140.8 meq/L. The PL (72 h, time 3 day) was 146 mg/dL, the RALB (72 h, time 3 day) was 3.4 g/dL and the TBIL (72 h, time 3 day) was 0.1 mg/dL. The TC (72 h, time 3 day) was 80.6 mg/dL, the TG (72 h, time 3 day) was 62.8 mg/dL and the TP (72 h, time 3 day) was 5.5 g/dL. The gamma-GTP (72 h, time 3 day) was 1.2 IU/L, the TERMINAL_BW ([…], time 7 day) was 262.3 g and the TERMINAL_BW ([…], time 14 day) was 308.3 g. For the same molecule, the TERMINAL_BW ([…], time 28 day) was 393.4 g, the APTT ([…], time 7 day) was 19.8 s and the Bas ([…], time 7 day) was 0%. For the same molecule, the Eos ([…], time 7 day) was 1%, the Fbg ([…], time 7 day) was 229.4 mg/dL and the Hb ([…], time 7 day) was 13.6 g/dL. The Ht ([…], time 7 day) was 40.4%, the Lym ([…], time 7 day) was 80.4% and the MCH ([…], time 7 day) was 21.3 pg. The MCHC ([…], time 7 day) was 33.8%, the MCV ([…], time 7 day) was 63 fL and the Mono ([…], time 7 day) was 2.2%. It also gave a Neu ([…], time 7 day) of 16%, a PT ([…], time 7 day) of 12.2 s and a Plat ([…], time 7 day) of 141.9 x10_4/uL. The RBC ([…], time 7 day) was 641.4 x10_4/ul, the Ret ([…], time 7 day) was 5.7% and the WBC ([…], time 7 day) was 131.1 x10_2/uL. For the same molecule, the APTT ([…], time 14 day) was 20.1 s, the Bas ([…], time 14 day) was 0% and the Eos ([…], time 14 day) was 1%. The Fbg ([…], time 14 day) was 225.6 mg/dL, the Hb ([…], time 14 day) was 14.2 g/dL and the Ht ([…], time 14 day) was 42.2%. It also gave a Lym ([…], time 14 day) of 78%, an MCH ([…], time 14 day) of 20.4 pg and an MCHC ([…], time 14 day) of 33.7%. It also gave an MCV ([…], time 14 day) of 60.6 fL, a Mono ([…], time 14 day) of 3.2% and a Neu ([…], time 14 day) of 17.2%. It also gave a PT ([…], time 14 day) of 12.3 s, a Plat ([…], time 14 day) of 129.7 x10_4/uL and an RBC ([…], time 14 day) of 696.2 x10_4/ul. For the same molecule, the Ret ([…], time 14 day) was 2.8%, the WBC ([…], time 14 day) was 131.1 x10_2/uL and the APTT ([…], time 28 day) was 21.2 s. The Bas ([…], time 28 day) was 0%, the Eos ([…], time 28 day) was 1% and the Fbg ([…], time 28 day) was 219.6 mg/dL. The Hb ([…], time 28 day) was 15 g/dL, the Ht ([…], time 28 day) was 44.1% and the Lym ([…], time 28 day) was 81.8%. It also gave an MCH ([…], time 28 day) of 19.5 pg, an MCHC ([…], time 28 day) of 34% and an MCV ([…], time 28 day) of 57.2 fL. It also gave a Mono ([…], time 28 day) of 2.2%, a Neu ([…], time 28 day) of 14.8% and a PT ([…], time 28 day) of 12.5 s. For the same molecule, the Plat ([…], time 28 day) was 121.1 x10_4/uL, the RBC ([…], time 28 day) was 772 x10_4/ul and the Ret ([…], time 28 day) was 2.7%. For the same molecule, the WBC ([…], time 28 day) was 138.9 x10_2/uL, the KIDNEY_L ([…], time 7 day) was 1.1 g and the KIDNEY_R ([…], time 7 day) was 1.1 g. The KIDNEY_TOTAL ([…], time 7 day) was 2.3 g, the KIDNEY_L ([…], time 14 day) was 1.2 g and the KIDNEY_R ([…], time 14 day) was 1.2 g. The KIDNEY_TOTAL ([…], time 14 day) was 2.4 g, the KIDNEY_L ([…], time 28 day) was 1.4 g and the KIDNEY_R ([…], time 28 day) was 1.4 g. It also gave a KIDNEY_TOTAL ([…], time 28 day) of 2.9 g, an LIVER ([…], time 7 day) of 12.7 g and an LIVER ([…], time 14 day) of 13.7 g. For the same molecule, the LIVER ([…], time 28 day) was 16.7 g, the A/G ([…], time 7 day) was 1.5 and the ALP ([…], time 7 day) was 865.8 IU/L. For the same molecule, the ALT ([…], time 7 day) was 36.2 IU/L, the AST ([…], time 7 day) was 62.2 IU/L and the BUN ([…], time 7 day) was 15.4 mg/dL. The CRE ([…], time 7 day) was 0.4 mg/dL, the Ca ([…], time 7 day) was 10.7 mg/dL and the Cl ([…], time 7 day) was 103.8 meq/L. For the same molecule, the DBIL ([…], time 7 day) was 0.08 mg/dL, the GLC ([…], time 7 day) was 206.2 mg/dL and the IP ([…], time 7 day) was 7.1 mg/dL. The K ([…], time 7 day) was 3.8 meq/L, the LDH ([…], time 7 day) was 162.6 IU/L and the Na ([…], time 7 day) was 142 meq/L. For the same molecule, the PL ([…], time 7 day) was 135.2 mg/dL, the RALB ([…], time 7 day) was 3.4 g/dL and the TBIL ([…], time 7 day) was 0.1 mg/dL. The TC ([…], time 7 day) was 75.4 mg/dL, the TG ([…], time 7 day) was 75 mg/dL and the TP ([…], time 7 day) was 5.7 g/dL. For the same molecule, the gamma-GTP ([…], time 7 day) was 1 IU/L, the A/G ([…], time 14 day) was 1.5 and the ALP ([…], time 14 day) was 701.8 IU/L. For the same molecule, the ALT ([…], time 14 day) was 35.2 IU/L, the AST ([…], time 14 day) was 57.4 IU/L and the BUN ([…], time 14 day) was 15.2 mg/dL. For the same molecule, the CRE ([…], time 14 day) was 0.5 mg/dL, the Ca ([…], time 14 day) was 10.6 mg/dL and the Cl ([…], time 14 day) was 103.2 meq/L. The DBIL ([…], time 14 day) was 0.1 mg/dL, the GLC ([…], time 14 day) was 215.2 mg/dL and the IP ([…], time 14 day) was 7.4 mg/dL. It also gave a K ([…], time 14 day) of 4.1 meq/L, an LDH ([…], time 14 day) of 171.8 IU/L and a Na ([…], time 14 day) of 140.6 meq/L. For the same molecule, the PL ([…], time 14 day) was 138.8 mg/dL, the RALB ([…], time 14 day) was 3.5 g/dL and the TBIL ([…], time 14 day) was 0.2 mg/dL. It also gave a TC ([…], time 14 day) of 72.6 mg/dL, a TG ([…], time 14 day) of 92.4 mg/dL and a TP ([…], time 14 day) of 5.8 g/dL. It also gave a gamma-GTP ([…], time 14 day) of 1 IU/L, an A/G ([…], time 28 day) of 1.3 and an ALP ([…], time 28 day) of 684.6 IU/L. The ALT ([…], time 28 day) was 31 IU/L, the AST ([…], time 28 day) was 55.8 IU/L and the BUN ([…], time 28 day) was 16 mg/dL. It also gave a CRE ([…], time 28 day) of 0.5 mg/dL, a Ca ([…], time 28 day) of 10.3 mg/dL and a Cl ([…], time 28 day) of 104.2 meq/L. It also gave a DBIL ([…], time 28 day) of 0.086 mg/dL, a GLC ([…], time 28 day) of 235.8 mg/dL and an IP ([…], time 28 day) of 6.4 mg/dL. The K ([…], time 28 day) was 3.5 meq/L, the LDH ([…], time 28 day) was 162.2 IU/L and the Na ([…], time 28 day) was 141.4 meq/L. It also gave a PL ([…], time 28 day) of 120.4 mg/dL, an RALB ([…], time 28 day) of 3.4 g/dL and a TBIL ([…], time 28 day) of 0.1 mg/dL. The TC ([…], time 28 day) was 66.2 mg/dL, the TG ([…], time 28 day) was 82 mg/dL and the TP ([…], time 28 day) was 6 g/dL. It also gave a gamma-GTP ([…], time 28 day) of 0.8 IU/L.
